Source: ChEMBL document CHEMBL1201862, “PubChem BioAssay data set” (2004)
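Compound exposure: 48 hours, 5 concentrations, 96-well plates. Here, GI50 denotes the concentration required for 50% inhibition of growth.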 Active and inactive are the calls of the source. Cut-off read from the data, not from the text of the source: active = GI50 up to about 1.1 µM and inactive = higher.

Tests used:
Assay in all cases: DTP human tumour cell line panel, 48 h
OVCAR-4 = test system: OVCAR-4
CCRF-CEM = test system: CCRF-CEM
A498 = test system: A498
SW-620 = test system: SW-620
MDA-MB-231 = test system: MDA-MB-231
PC-3 = test system: PC-3
SF-539 = test system: SF-539
OVCAR-5 = test system: OVCAR-5
MCF7 = test system: MCF7
SNB-75 = test system: SNB-75
OVCAR-8 = test system: OVCAR-8
HOP-92 = test system: HOP-92
IGROV-1 = test system: IGROV-1
UACC-62 = test system: UACC-62
BT-549 = test system: BT-549
KM12 = test system: KM12
SK-MEL-28 = test system: SK-MEL-28
Hs-578T = test system: Hs-578T
SF-295 = test system: SF-295

Measured: GI50

Cc1cc(C)c2c(c1)CC1(Cc3c(C)cc(C)cc3C1=O)C2=O (stereo unspecified)
inactive: OVCAR-4 46.3 µM | CCRF-CEM > 100 µM | A498 > 100 µM | SW-620 > 100 µM | MDA-MB-231 > 100 µM | PC-3 > 100 µM | SF-539 35.8 µM | OVCAR-5 > 100 µM | MCF7 > 100 µM | SNB-75 > 100 µM | OVCAR-8 > 100 µM | HOP-92 > 100 µM | IGROV-1 84.5 µM | UACC-62 > 100 µM | BT-549 > 100 µM | KM12 > 100 µM | SK-MEL-28 > 100 µM | Hs-578T > 100 µM | SF-295 > 100 µM

O=C1C=CC(=O)c2c1cc([N+](=O)[O-])c1ccoc21
inactive: OVCAR-4 18.9 µM | CCRF-CEM 2.1 µM | A498 15.5 µM | SW-620 2.36 µM | MDA-MB-231 21.3 µM | PC-3 15.6 µM | SF-539 27.2 µM | OVCAR-5 18.5 µM | MCF7 14.3 µM | SNB-75 26.1 µM | OVCAR-8 26.2 µM | HOP-92 1.96 µM | IGROV-1 17.7 µM | UACC-62 15.8 µM | BT-549 16.9 µM | KM12 15.9 µM | SK-MEL-28 20.1 µM | Hs-578T 28.1 µM | SF-295 19.1 µM

O=C(SC1=NCCN1)c1cccc2ccccc12
inactive: OVCAR-4 59.8 µM | CCRF-CEM 21.8 µM | A498 > 100 µM | SW-620 33.8 µM | MDA-MB-231 > 100 µM | PC-3 42 µM | SF-539 > 100 µM | OVCAR-5 > 100 µM | MCF7 50.9 µM | SNB-75 22.8 µM | OVCAR-8 71.9 µM | HOP-92 42.1 µM | IGROV-1 63.7 µM | UACC-62 > 100 µM | BT-549 64.7 µM | KM12 37 µM | SK-MEL-28 96.2 µM | Hs-578T 81.3 µM | SF-295 36.8 µM

O=C(O)COc1cc(-c2ccccc2)nc2ccc(F)cc12
inactive: OVCAR-4 > 100 µM | CCRF-CEM > 100 µM | A498 > 100 µM | SW-620 > 100 µM | MDA-MB-231 > 100 µM | PC-3 > 100 µM | SF-539 > 100 µM | OVCAR-5 > 100 µM | MCF7 > 100 µM | SNB-75 > 100 µM | OVCAR-8 > 100 µM | HOP-92 > 100 µM | IGROV-1 > 100 µM | UACC-62 > 100 µM | BT-549 > 100 µM | KM12 > 100 µM | SK-MEL-28 > 100 µM | Hs-578T > 100 µM | SF-295 > 100 µM
